Assay [1] deals with T1, hNaV1.7 (Homo sapiens, UniProt Q15858). Briefly: cell-based. The assay is classed as cell-based.
Assay [2] addresses hNaV1.6 (Homo sapiens, UniProt Q9UQD0). Briefly: cell-based. As to conditions: N = 4; SEM; read-out: IC50 ± SEM, NaV1.6.
The target of assay [3] is hNaV1.4 (Homo sapiens, UniProt P35499). Briefly: cell-based. The assay is classed as cell-based. Conditions: for IC50: N = 4, read-out: IC50 ± SEM, NaV1.4.
Assay [4] concerns the target hNaV1.5 (Homo sapiens, UniProt Q14524). In words: cell-based. In kind it is cell-based. As to conditions: for IC50: N = 3-4, read-out: IC50 ± SEM, NaV1.5.
Assay [5] addresses hNaV1.3 (Homo sapiens, UniProt Q9NY46). In words: cell-based. Conditions: N = 3-4; SEM; read-out: IC50 ± SEM, NaV1.3.
Assay [6] addresses T1, hNaV1.7. The assay is classed as cell-based. As to conditions: SEM.
Assay [7] concerns the target hNaV1.2 (Homo sapiens, UniProt Q99250). Briefly: cell-based. Conditions: N = 3-6; SEM; read-out: IC50 ± SEM, NaV1.2.
The target of assay [8] is hNaV1.1 (Homo sapiens, UniProt P35498). Briefly: cell-based. The assay is classed as cell-based.
Assay [9] has as its system rKV2.1/hNaV1.1 chimera containing the paddles S3–S4 from DII from NaV1.1. In kind it is cell-based.
Assay [10] deals with endogenous K+ currents from non-transfected HEK293 cells. The assay is classed as cell-based.
Where [11] appears, read: N = 3-4, SEM, read-out: IC50 ± SEM, NaV1.7.
Setting [12] is: N = 4-5, SEM, read-out: IC50 ± SEM, NaV1.1.

Where two headings read alike, the source gives them in different places. Where a SMILES comes first, the peptide text is derived from it. Bridges are numbered along the chain shown (N, C = ends). Bounds are passed on as bounds.

T1 sequence (Q15858 whole entry, looked up): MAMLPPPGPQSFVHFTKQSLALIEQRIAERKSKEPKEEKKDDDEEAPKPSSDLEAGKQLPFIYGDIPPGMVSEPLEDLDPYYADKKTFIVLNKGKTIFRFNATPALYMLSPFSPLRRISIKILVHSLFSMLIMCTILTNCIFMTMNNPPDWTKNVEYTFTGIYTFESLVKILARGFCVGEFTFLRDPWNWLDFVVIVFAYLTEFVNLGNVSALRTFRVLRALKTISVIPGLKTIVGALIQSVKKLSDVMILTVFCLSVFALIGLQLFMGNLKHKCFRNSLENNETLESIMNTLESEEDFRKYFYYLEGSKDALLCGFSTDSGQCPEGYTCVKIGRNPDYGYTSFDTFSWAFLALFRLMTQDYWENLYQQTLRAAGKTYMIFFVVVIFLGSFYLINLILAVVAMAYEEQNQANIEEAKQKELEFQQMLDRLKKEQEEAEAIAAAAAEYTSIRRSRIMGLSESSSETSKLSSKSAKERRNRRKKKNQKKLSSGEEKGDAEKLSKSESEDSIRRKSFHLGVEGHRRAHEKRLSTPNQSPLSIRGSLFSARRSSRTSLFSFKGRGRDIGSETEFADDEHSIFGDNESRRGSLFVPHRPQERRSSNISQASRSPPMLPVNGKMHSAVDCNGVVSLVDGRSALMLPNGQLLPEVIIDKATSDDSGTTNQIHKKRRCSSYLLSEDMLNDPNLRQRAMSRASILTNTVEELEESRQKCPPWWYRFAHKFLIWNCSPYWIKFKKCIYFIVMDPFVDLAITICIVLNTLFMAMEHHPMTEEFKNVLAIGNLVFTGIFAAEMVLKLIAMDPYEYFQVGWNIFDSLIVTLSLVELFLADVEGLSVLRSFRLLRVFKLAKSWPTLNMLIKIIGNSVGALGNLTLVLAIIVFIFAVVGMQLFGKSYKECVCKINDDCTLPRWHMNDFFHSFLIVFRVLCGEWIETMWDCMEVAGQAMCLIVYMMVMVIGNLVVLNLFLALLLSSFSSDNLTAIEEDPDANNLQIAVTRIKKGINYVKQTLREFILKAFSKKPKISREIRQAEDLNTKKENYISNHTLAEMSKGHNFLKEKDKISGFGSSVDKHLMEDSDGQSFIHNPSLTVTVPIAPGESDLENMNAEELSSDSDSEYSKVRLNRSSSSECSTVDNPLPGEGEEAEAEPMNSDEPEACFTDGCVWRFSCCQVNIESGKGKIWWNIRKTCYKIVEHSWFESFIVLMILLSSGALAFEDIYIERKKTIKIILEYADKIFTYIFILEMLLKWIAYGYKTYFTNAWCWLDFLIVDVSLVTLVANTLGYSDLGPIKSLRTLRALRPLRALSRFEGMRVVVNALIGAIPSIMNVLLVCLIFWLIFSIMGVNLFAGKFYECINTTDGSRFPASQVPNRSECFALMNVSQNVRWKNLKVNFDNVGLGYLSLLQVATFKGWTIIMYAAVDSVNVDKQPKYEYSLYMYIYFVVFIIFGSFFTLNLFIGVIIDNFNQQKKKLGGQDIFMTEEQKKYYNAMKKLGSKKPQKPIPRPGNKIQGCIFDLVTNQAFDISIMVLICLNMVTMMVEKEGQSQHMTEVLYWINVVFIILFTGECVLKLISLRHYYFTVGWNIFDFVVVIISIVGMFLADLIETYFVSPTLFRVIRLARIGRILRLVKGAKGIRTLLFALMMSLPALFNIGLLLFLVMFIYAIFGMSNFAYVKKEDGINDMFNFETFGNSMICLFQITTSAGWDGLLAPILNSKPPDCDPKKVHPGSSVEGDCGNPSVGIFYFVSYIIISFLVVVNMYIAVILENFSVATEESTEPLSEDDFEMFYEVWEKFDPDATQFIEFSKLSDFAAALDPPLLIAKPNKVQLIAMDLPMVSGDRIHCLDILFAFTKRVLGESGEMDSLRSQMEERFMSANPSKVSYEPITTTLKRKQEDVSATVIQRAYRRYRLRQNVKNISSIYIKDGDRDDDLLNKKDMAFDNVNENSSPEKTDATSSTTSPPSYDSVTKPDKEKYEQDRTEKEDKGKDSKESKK
Sequence of hNaV1.4 (P35499 whole entry, looked up): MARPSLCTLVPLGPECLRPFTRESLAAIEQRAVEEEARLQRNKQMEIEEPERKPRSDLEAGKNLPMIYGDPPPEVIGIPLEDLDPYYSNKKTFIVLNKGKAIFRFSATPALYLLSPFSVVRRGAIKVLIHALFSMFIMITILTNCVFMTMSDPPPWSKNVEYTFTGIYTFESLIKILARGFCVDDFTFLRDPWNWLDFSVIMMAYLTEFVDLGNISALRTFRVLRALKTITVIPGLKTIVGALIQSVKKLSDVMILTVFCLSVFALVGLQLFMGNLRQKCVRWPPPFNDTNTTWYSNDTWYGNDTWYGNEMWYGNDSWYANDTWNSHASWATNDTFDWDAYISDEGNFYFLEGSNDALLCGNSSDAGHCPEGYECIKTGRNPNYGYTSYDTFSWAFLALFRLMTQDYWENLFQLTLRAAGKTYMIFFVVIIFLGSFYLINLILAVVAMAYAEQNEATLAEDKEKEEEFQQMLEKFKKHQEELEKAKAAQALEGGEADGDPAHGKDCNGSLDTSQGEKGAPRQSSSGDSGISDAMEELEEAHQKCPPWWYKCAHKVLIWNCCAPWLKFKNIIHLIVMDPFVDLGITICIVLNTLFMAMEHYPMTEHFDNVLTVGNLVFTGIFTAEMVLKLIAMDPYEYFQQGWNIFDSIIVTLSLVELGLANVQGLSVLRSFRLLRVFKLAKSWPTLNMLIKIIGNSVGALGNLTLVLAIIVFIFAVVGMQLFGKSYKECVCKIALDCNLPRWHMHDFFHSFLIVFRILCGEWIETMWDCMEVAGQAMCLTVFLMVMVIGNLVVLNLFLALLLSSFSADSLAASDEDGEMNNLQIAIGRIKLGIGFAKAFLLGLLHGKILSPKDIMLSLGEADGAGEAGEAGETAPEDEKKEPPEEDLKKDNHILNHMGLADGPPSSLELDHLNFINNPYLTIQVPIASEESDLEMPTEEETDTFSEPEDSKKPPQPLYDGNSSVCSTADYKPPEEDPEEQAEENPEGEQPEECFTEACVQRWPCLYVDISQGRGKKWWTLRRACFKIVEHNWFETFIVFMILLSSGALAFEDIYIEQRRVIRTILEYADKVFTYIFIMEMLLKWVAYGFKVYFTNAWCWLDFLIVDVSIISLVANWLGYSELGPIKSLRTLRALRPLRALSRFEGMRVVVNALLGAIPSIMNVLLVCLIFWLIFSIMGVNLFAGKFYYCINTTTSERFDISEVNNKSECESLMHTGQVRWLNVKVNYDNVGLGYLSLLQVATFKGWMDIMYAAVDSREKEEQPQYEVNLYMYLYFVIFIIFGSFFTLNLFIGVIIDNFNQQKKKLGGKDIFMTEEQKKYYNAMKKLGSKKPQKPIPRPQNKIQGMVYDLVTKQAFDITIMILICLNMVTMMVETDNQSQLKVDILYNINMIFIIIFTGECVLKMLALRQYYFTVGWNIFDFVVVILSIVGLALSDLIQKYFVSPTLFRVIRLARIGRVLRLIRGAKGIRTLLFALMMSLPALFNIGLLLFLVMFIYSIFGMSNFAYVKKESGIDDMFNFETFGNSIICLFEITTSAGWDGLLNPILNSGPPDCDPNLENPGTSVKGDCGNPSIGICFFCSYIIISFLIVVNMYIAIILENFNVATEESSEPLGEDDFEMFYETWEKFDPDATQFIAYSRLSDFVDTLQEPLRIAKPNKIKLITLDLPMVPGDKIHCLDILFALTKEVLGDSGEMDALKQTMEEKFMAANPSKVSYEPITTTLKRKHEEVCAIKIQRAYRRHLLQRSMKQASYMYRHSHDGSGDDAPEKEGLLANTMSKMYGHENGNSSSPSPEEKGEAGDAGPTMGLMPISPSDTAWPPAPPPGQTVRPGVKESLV

Usually IC50 stands for the concentration at which inhibition is half-maximal. `CC[C@H](C)[C@@H]1NC(=O)CNC(=O)[C@H](CC(C)C)NC(=O)[C@@H](NC(=O)CNC(=O)CN)CSSC[C@@H]2NC(=O)[C@@H]3CSSC[C@@H](C(=O)N[C@@H](CCCCN)C(=O)N[C@@H](Cc4c[nH]c5ccccc45)C(=O)N[C@@H](CCCCN)C(=O)N[C@@H](CC(C)C)C(=O)N[C@@H](Cc4c[nH]c5ccccc45)C(=O)O)NC(=O)[C@H](Cc4c[nH]c5ccccc45)NC(=O)[C@H](CCCNC(=N)N)NC(=O)[C@H](Cc4c[nH]cn4)NC(=O)[C@H](CCCCN)NC(=O)[C@H](CCCCN)NC(=O)[C@H](CO)NC(=O)[C@H](CSSC[C@H](NC(=O)[C@H](CO)NC(=O)[C@H](CO)NC(=O)[C@H](Cc4ccccc4)NC1=O)C(=O)N[C@@H](CC(=O)O)C(=O)N1CCC[C@H]1C(=O)N[C@@H](CCC(=O)O)C(=O)N[C@@H](CC(N)=O)C(=O)N[C@@H](CC(=O)O)C(=O)N[C@@H](CCCCN)C(=O)N3)NC(=O)[C@H](C(C)C)NC(=O)[C@H](CCCNC(=N)N)NC(=O)[C@H](CC(N)=O)NC(=O)[C@H](Cc1ccc(O)cc1)NC2=O` [Tap1a-OPT1] (H-GGCLGIFSSCDPENDKCCYNRVCSKKHRWCKWKLW-OH; disulfide 3-18, 10-23, 17-30): the IC50 in assay [1] (setting [11]) is 3 ± 0.7 nM; in [2], 4.6 ± 2.3 nM; in [3] (SEM), 100 ± 19 nM; in assay [4] it was over 1000 nM; in assay [5] it was 6 ± 0.5 nM; in [7] it was 5 ± 1 nM. In assay [8] (setting [12]), the IC50 was found to be 17 ± 3 nM. For the same molecule, the “Kon observed, hNaV1.7” value in assay [6] is given as 8.60 ± 1.7 × 10^−3 s^−1.

Take `CC[C@H](C)[C@@H]1NC(=O)CNC(=O)[C@H](CC(C)C)NC(=O)[C@@H](NC(=O)CNC(=O)CN)CSSC[C@@H]2NC(=O)[C@@H]3CSSC[C@@H](C(=O)N[C@@H](CCCCN)C(=O)N[C@@H](Cc4c[nH]c5ccccc45)C(=O)N[C@@H](CCCCN)C(=O)N[C@@H](CC(C)C)C(=O)N[C@@H](Cc4c[nH]c5ccccc45)C(=O)O)NC(=O)[C@H](Cc4c[nH]c5ccccc45)NC(=O)[C@H](CCCNC(=N)N)NC(=O)[C@H](Cc4c[nH]cn4)NC(=O)[C@H](CCCCN)NC(=O)[C@H](CCCCN)NC(=O)[C@H](CO)NC(=O)[C@H](CSSC[C@H](NC(=O)[C@H](CO)NC(=O)[C@H](CO)NC(=O)[C@H](C)NC1=O)C(=O)N[C@@H](CC(=O)O)C(=O)N1CCC[C@H]1C(=O)N[C@@H](CCC(=O)O)C(=O)N[C@@H](CC(N)=O)C(=O)N[C@@H](CC(=O)O)C(=O)N[C@@H](CCCCN)C(=O)N3)NC(=O)[C@H](C(C)C)NC(=O)[C@H](CCCNC(=N)N)NC(=O)[C@H](CC(N)=O)NC(=O)[C@H](Cc1ccc(O)cc1)NC2=O` [Tap1a-OPT2] (H-GGCLGIASSCDPENDKCCYNRVCSKKHRWCKWKLW-OH; disulfide 3-18, 10-23, 17-30): the “loss of activity for NaV1.7 compared to Tap1a-OPT1” value in [1] stood at 2 fold. Besides, the IC50 in [1] (setting [11]) was 35 ± 2 nM; in assay [2] it was 75 ± 11 nM; in assay [3], over 1000 nM; in assay [4], over 1000 nM; in [5], 96 ± 9 nM; in [7] it was 43 ± 5 nM. Moreover, the IC50 in [8] (setting [12]) is 54 ± 9 nM. For the same molecule, the “inhibition of NaV1.4, in words” value in [3] is reported as “did not significantly inhibit”. The “loss of activity for NaV1.4 compared to Tap1a-OPT1” value in assay [3] is “at least 10 fold”. Also, the “inhibition of NaV1.5, in words” value in assay [4] is given as “did not significantly inhibit”.

For the molecule `COC(=O)C1=C(C)NC(C)=C(C(=O)OC)C1c1ccccc1[N+](=O)[O-]` [nifedipine], in assay [9], the “effect on potassium currents of cells transfected with the chimera KV2.1/NaV1.1 VSDII” value is on record as “sensitive”. Further, the “effect on endogenous potassium currents of non-transfected HEK293 cells” value in assay [10] was “inhibited”.

With `CSCC[C@@H]1NC(=O)CNC(=O)[C@H](CC(C)C)NC(=O)[C@@H](NC(=O)[C@H](CC(=O)O)NC(=O)[C@H](CC(=O)O)NC(=O)CN)CSSC[C@@H]2NC(=O)[C@@H]3CSSC[C@@H](C(=O)N[C@@H](CCCCN)C(=O)N[C@@H](Cc4ccc(O)cc4)C(=O)N[C@@H](CCC(N)=O)C(=O)N[C@@H](C)C(=O)N[C@@H](Cc4c[nH]c5ccccc45)C(=O)O)NC(=O)[C@H](Cc4c[nH]c5ccccc45)NC(=O)[C@H](CCC(N)=O)NC(=O)[C@H](CC(=O)O)NC(=O)[C@H](CCCCN)NC(=O)[C@H](CCCNC(=N)N)NC(=O)[C@H](CO)NC(=O)[C@H](CSSC[C@H](NC(=O)[C@H](CO)NC(=O)[C@H](CO)NC(=O)[C@H](Cc4ccccc4)NC1=O)C(=O)N[C@@H](CC(=O)O)C(=O)N1CCC[C@H]1C(=O)N[C@@H](CC(N)=O)C(=O)N[C@@H](CC(N)=O)C(=O)N[C@@H](CC(=O)O)C(=O)N[C@@H](CCCCN)C(=O)N3)NC(=O)[C@H](CCCCN)NC(=O)[C@H](CCCNC(=N)N)NC(=O)[C@H](CC(N)=O)NC(=O)[C@@H]1CCCN1C2=O` [Peptide L34A] (H-GDDCLGMFSSCDPNNDKCCPNRKCSRKDQWCKYQAW-OH; disulfide 4-19, 11-24, 18-31), the IC50 in assay [1] and in assay [8] was over 1000 nM throughout.
